The results in this text go back to ChEMBL document CHEMBL3751822, “C1C2-linker substituted 1,5-naphthyridine analogues of oxabicyclooctane-linked NBTIs as broad-spectrum antibacterial agents (part 7)” (Medchemcomm, 2015).

Experiment [1] concerns Staphylococcus aureus. Kind of experiment: Antibacterial activity against Staphylococcus aureus infected in iv dosed mouse. Format: functional.
The test system of experiment [2] is Staphylococcus aureus. Kind of experiment: Antibacterial activity against Staphylococcus aureus infected in po dosed mouse. Type of experiment: functional.
For experiment [3], the system named is Staphylococcus aureus. Put plainly: Antibacterial activity against quinolone-resistant Staphylococcus aureus MS5935 by micro-broth dilution method. Type of experiment: functional.
The test system of experiment [4] is Staphylococcus aureus. Put plainly: Antibacterial activity against quinolone-sensitive Staphylococcus aureus MS5935 by micro-broth dilution method. Format: functional.
Experiment [5] has as its system Staphylococcus aureus. Put plainly: Ratio of MIC for quinolone-resistant Staphylococcus aureus MS5935 to MIC for quinolone-sensitive Staphylococcus aureus MS5935. Format: functional.
The subject of the next experiment is Acinetobacter baumannii. Put plainly: Antibacterial activity against Acinetobacter baumannii IID876 by micro-broth dilution method. To be noted: Acinetobacter baumannii, IID876; read-out: MIC. Type of experiment: functional.
A further experiment has as its system Escherichia coli. Put plainly: Antibacterial activity against Escherichia coli ATCC 25922 by micro-broth dilution method. Type of experiment: functional. Particulars: Escherichia coli, ATCC 25922; read-out: MIC. For orientation: Dilution methods test growth across graded concentrations, often in twofold steps.
Experiment [6] addresses T1, Voltage-gated inwardly rectifying potassium channel KCNH2 (Homo sapiens, UniProt Q12809). Kind of experiment: Displacement of MK499 from human ERG.
Another experiment relates to Pseudomonas aeruginosa. Put plainly: Antibacterial activity against Pseudomonas aeruginosa PAO1 by micro-broth dilution method. Type of experiment: functional. Particulars: Pseudomonas aeruginosa, PAO1; read-out: MIC.
The subject of experiment [7] is Staphylococcus aureus. Put plainly: Antibacterial activity against Staphylococcus aureus Smith by micro-broth dilution method. Format: functional.
For the next experiment, the system named is Streptococcus pneumoniae. Kind of experiment: Antibacterial activity against Streptococcus pneumoniae IID553 by micro-broth dilution method. Format: functional.
The subject of experiment [8] is Staphylococcus aureus. Kind of experiment: Antibacterial activity against methicillin resistant Staphylococcus aureus OIT971 by micro-broth dilution method. Format: functional.
For the next experiment, the system named is Enterococcus faecium. Put plainly: Antibacterial activity against Enterococcus faecium VanA by micro-broth dilution method. Type of experiment: functional. To be noted: Enterococcus faecium, VanA; read-out: MIC.
The target in experiment [9] is T1, Voltage-gated inwardly rectifying potassium channel KCNH2. Kind of experiment: Inhibition of human ERG expressed in CHO cells by patch express assay. Type of experiment: cell-based.
[10] abbreviates: Staphylococcus aureus, iv, read-out: ED50.
The mark [11] stands for this setting: Staphylococcus aureus, po, read-out: ED50.
Setting [12] is: Staphylococcus aureus, Smith, read-out: MIC.
The mark [13] stands for this setting: Streptococcus pneumoniae, IID553, read-out: MIC.
Where [14] appears, read: Staphylococcus aureus, OIT971, read-out: MIC.

pIC50: −log10 of the molar value. Converted amounts (≈) assume the structure as drawn.

T1 sequence (Q12809 whole entry): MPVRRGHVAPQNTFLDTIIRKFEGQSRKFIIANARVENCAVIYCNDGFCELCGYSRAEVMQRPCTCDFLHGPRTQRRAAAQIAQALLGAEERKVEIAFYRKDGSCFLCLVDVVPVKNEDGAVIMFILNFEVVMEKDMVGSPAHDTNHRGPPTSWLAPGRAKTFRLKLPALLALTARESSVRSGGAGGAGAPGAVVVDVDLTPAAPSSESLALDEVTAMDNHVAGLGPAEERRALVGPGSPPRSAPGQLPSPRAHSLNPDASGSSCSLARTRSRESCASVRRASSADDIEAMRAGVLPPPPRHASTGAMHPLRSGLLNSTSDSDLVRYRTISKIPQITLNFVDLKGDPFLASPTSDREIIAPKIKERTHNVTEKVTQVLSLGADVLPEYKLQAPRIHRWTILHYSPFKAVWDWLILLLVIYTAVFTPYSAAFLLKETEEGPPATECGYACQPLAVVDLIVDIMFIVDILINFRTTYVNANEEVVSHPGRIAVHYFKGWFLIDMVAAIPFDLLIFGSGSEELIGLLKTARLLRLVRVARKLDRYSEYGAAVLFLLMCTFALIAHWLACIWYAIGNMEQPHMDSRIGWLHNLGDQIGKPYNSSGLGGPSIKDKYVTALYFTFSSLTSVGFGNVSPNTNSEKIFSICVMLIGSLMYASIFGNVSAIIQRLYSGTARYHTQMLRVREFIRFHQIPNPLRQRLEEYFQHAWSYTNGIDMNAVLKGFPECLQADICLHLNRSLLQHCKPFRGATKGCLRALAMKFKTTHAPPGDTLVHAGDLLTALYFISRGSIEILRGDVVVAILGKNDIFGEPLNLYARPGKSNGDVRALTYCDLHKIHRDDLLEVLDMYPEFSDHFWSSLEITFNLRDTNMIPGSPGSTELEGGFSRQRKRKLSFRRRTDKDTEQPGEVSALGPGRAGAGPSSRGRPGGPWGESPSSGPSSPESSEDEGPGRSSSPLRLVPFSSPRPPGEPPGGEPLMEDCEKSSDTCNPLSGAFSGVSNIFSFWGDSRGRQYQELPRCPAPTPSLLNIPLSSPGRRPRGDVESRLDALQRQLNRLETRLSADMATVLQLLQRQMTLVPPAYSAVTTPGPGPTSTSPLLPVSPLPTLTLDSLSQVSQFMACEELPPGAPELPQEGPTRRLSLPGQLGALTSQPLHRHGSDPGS

What is called ED50 is the midpoint of the dose-response relation. For the compound `COc1ccc2ncc(F)c(C[C@H](O)C34CCC(NCc5ccc6c(n5)NC(=O)CO6)(CC3)CO4)c2n1.Cl`, the ED50 in the experiment with Staphylococcus aureus [1] (setting [10]) came out at 2.5 mg/kg; with Staphylococcus aureus [2] (setting [11]), 2.2 mg/kg.

`COc1ccc2ncc(F)c(CC(N)C34CCC(NCc5ccc6c(n5)NC(=O)CO6)(CC3)CO4)c2n1.Cl` (stereo in doubt): the values for the ED50 in the experiment with Staphylococcus aureus [1] and in the experiment with Staphylococcus aureus [2] were 11 mg/kg and 21 mg/kg, respectively.

In the case of `COc1ccc2ncc(F)c(CC(N)C34CCC(NCc5ccc6c(n5)NC(=O)CO6)(CC3)CO4)c2n1.Cl` (single isomer, unassigned; (+)), the ED50 in the experiment with Staphylococcus aureus [1] was determined as 25 mg/kg; in the experiment with Staphylococcus aureus [2] it was 50 mg/kg.

On to `COc1ccc2ncc(F)c(CC(=O)C34CCC(NCc5ccc6c(n5)NC(=O)CO6)(CC3)CO4)c2n1.Cl`, for which the ED50 with Staphylococcus aureus [1] (setting [10]) was determined as 5.1 mg/kg; in the experiment on Staphylococcus aureus [2] (setting [11]), 6.4 mg/kg.

Broadly, the MIC is the lowest concentration that inhibits growth of the organism. In the case of `C[C@H]1COc2c(N3CCN(C)CC3)c(F)cc3c(=O)c(C(=O)O)cn1c23.C[C@H]1COc2c(N3CCN(C)CC3)c(F)cc3c(=O)c(C(=O)O)cn1c23.O` [LEVOFLOXACIN], the MIC was more than 16 µg/mL in the experiment with Staphylococcus aureus [3] and 0.26 µg/mL in the experiment with Staphylococcus aureus [4]. The Ratio in the experiment on Staphylococcus aureus [5] is more than 64.

Usually pIC50 stands for −log10 of the IC50, conventionally taken in molar units. For `COc1ccc2ncc(F)c([C@@H](O)[C@H](O)C34CCC(NCc5ccc6c(n5)NC(=O)CO6)(CC3)CO4)c2n1`, the minimal inhibitory concentration (MIC) in the experiment with Acinetobacter baumannii worked out at 2 µg/mL (≈ 3.81 µM); with Escherichia coli, 16 µg/mL (≈ 30.4 µM); in the experiment on Pseudomonas aeruginosa, 32 µg/mL (≈ 60.9 µM); in the experiment with Staphylococcus aureus [7] (setting [12]), 0.25 µg/mL (≈ 0.476 µM); in the experiment with Streptococcus pneumoniae (setting [13]), 2 µg/mL (≈ 3.81 µM); in the experiment with Staphylococcus aureus [8] (setting [14]), 0.25 µg/mL (≈ 0.476 µM). In addition, in the experiment with Enterococcus faecium, the MIC amounted to 8 µg/mL (≈ 15.2 µM). The compound also showed a negative-log IC50 (pIC50) in experiment [6] of 4.22. In addition, in the experiment on Staphylococcus aureus [5], the Ratio is reported as less than 4.

For the compound `COc1ccc2ncc(F)c(C(O)CC34CCC(NCc5ccc6c(n5)NC(=O)CO6)(CC3)CO4)c2n1.Cl` (single isomer, unassigned; (+)), the ED50 with Staphylococcus aureus [1] (setting [10]) was determined as 5.9 mg/kg; in the experiment on Staphylococcus aureus [2] (setting [11]) it was 6.4 mg/kg.

In the case of `COc1ccc2ncc(F)c(C(=O)CC34CCC(NCc5ccc6c(n5)NC(=O)CO6)(CC3)CO4)c2n1`, the minimal inhibitory concentration (MIC) in the experiment with Acinetobacter baumannii is 1 µg/mL (≈ 1.97 µM); in the experiment with Escherichia coli it was 4 µg/mL (≈ 7.88 µM); in the experiment with Pseudomonas aeruginosa, 32 µg/mL (≈ 63.1 µM); with Staphylococcus aureus [7] (setting [12]), 0.06 µg/mL (≈ 0.118 µM); in the experiment with Streptococcus pneumoniae (setting [13]), 0.25 µg/mL (≈ 0.493 µM); in the experiment on Staphylococcus aureus [8] (setting [14]), 0.06 µg/mL (≈ 0.118 µM). In the experiment on Enterococcus faecium, the minimal inhibitory concentration (MIC) was 2 µg/mL (≈ 3.94 µM). Further, the pIC50 was 5.92 in experiment [6] and 5.43 in experiment [9]. Also, the Ratio with Staphylococcus aureus [5] is listed as less than 4.

As to `COc1ccc2ncc(F)c(C(O)CC34CCC(NCc5ccc6c(n5)NC(=O)CO6)(CC3)CO4)c2n1` (single isomer, unassigned; (+)), the MIC was determined as 1 µg/mL (≈ 1.96 µM) in the experiment with Acinetobacter baumannii; 8 µg/mL (≈ 15.7 µM) with Escherichia coli; 16 µg/mL (≈ 31.4 µM) in the experiment with Pseudomonas aeruginosa; 0.13 µg/mL (≈ 0.255 µM) against Staphylococcus aureus [7]; 1 µg/mL (≈ 1.96 µM) with Streptococcus pneumoniae; 0.13 µg/mL (≈ 0.255 µM) against Staphylococcus aureus [8]. Also, the minimum inhibitory concentration (MIC) in the experiment with Enterococcus faecium turned out to be 4 µg/mL (≈ 7.85 µM). In addition, the pIC50 in [6] is 5.40. In the experiment on Staphylococcus aureus [5], the Ratio was less than 4.

On to `COc1ccc2ncc(F)c(C(O)CC34CCC(NCc5ccc6c(n5)NC(=O)CO6)(CC3)CO4)c2n1.Cl` (single isomer, unassigned; (-)), for which the ED50 was 3.7 mg/kg in the experiment on Staphylococcus aureus [1] and 4.8 mg/kg with Staphylococcus aureus [2].
